Laboratory results: US9688760B2, “Anti-leukocyte adhesion for the mitigation of potential adverse events caused by CD3-specific binding domains” (AMGEN RESEARCH (MUNICH) GMBH, priority 2013, dated 2017)

Experiments:
[1] = test system: ICAM-1, P-selectin and VCAM-1 on HBMEC; assay: Immunofluorescence staining of HBMEC after T cell-rolling; type: cell-based, human
Procedure: After rolling and adhesion of T cells on HBMEC or HUVEC under flow conditions, endothelial cells were fixed using 150 μl of 4% paraformaldehyde solution (#P-6148, Sigma-Aldrich) for 30 min at 4° C. μ-slides were rinsed with 150 μl of D-PBS and subjected to immunofluorescence staining. HBMEC were first blocked with 150 μl of avidin blocking reagent (#PHA-70871, reagent 1, Dianova) for 10 min at room temperature, washed with 150 μl of D-PBS followed by incubation with 150 μl of biotin blocking reagent (#PHA-70871, reagent 2, Dianova). All following staining procedures were performed in 150 μl of D-PBS with 5% FBS at room temperature in the dark, and washing steps were done in 150 μl of D-PBS. μ-slides were incubated with 5 μg/ml polyclonal rabbit anti-human VCAM-1 (#106777, abcam) for 1 h. After washing, 20 μg/ml goat anti-rabbit IgG-DyLight350 was added for 1 h followed by washing and incubation with 15 μg/ml mouse anti-human P-selectin IgG1 (#BBA30, R&D Systems) for 2 h. After washing, goat anti-mouse IgG-Alexa488 (1:100) (#A10680, Invitrogen) was added for 1 h. […] VCAM-1 staining was monitored with a CFL EPI-FL Filter Block UV-2A (#MBE41200, Nikon), P-selectin staining with a CFL EPI-FL Filter Block GFP-B (#MBE44740, Nikon), and ICAM-1 staining with an EPI-FL Filter Block Cy3 (#MXU96213, Nikon). […]

[2] = test system: recombinant human P-selectin; assay: Flow chamber: T cell-rolling on recombinant P-selectin, semi short-term conditions; type: cell-based; conditions: +AMG 103 10 ng/ml, coated at 20 μg/ml
Procedure: Recombinant proteins (rhICAM-1 #ADP4-050, rhVCAM-1 #ADP5-050 or rhP-selectin #ADP3-050, R&D Systems) were dissolved in ddH2O according to the manufacturer's instructions. Prior to rolling experiments recombinant proteins were diluted in Dulbecco's PBS with Ca^2+ and Mg^2+ (#L1815, Biochrom) and coated onto a μ-slide VI^0.4 Luer ibiTreat (#80606, ibidi) over night at 4° C. Before usage slides were washed three times with Dulbecco's PBS and blocked where indicated with 20% FBS (#10270, Gibco) in PBS for 2 h at room temperature. Blocking solution was replaced by RPMI 1640 medium (#FG1215, Biochrom) without supplements.
Isolation and characterization of human peripheral blood mononuclear cells (PBMC) and T cells from blood were performed as described in Example 2 (p. 48, 1-31). […]
For rolling experiments using freshly isolated T cells, these cells were resuspended in RPMI 1640 medium (#FG1215, Biochrom) without supplements to a final concentration of 1×10^6 cells/ml at the start of the experiment (t=0 min; addition of 10 ng/ml Blinatumomab (AMG 103)) and incubated for 35 min at 37° C. and 5% CO2. Cells were then filled in a perfusion set “white” (#10963, ibidi) which was connected to both a fluidic unit and the μ-slide and image sequences of 45 sec duration were recorded at t=40 min, 45 min, and 50 min as described in Example 2 (p. 50, 18-23). […]

Substance: Blinatumomab: recombinant CD19×CD3 bispecific scFv antibody consisting of four immunoglobulin variable domains assembled into a single polypeptide chain
- surface expression of adhesion molecules on HBMEC ([1]; after T cell-rolling with Blinatumomab-stimulated T cells, 120 min): increased surface expression of adhesion molecules ICAM-1, P-selectin and VCAM-1
- cell surface expression of P-selectin on HBMEC ([1]; histamine-stimulated HBMEC, Blinatumomab added, no PPS): increased
- mean T cell-rolling velocity±SD ([2]; Jurkat E6.1 T cells, t=45 min, control −AMG 103 500±81): 413±104 μm/sec
- mean T cell-rolling velocity±SD ([2]; freshly isolated T cells, t=50 min, with blocking, control −AMG 103 402±115): 293±73 μm/sec
